First: CCN(CC)CCCCCc1ccc2sccc2c1.O=C(O)C(=O)O
Second: CCN(CC)CCCOCCc1ccc2sccc2c1.O=C(O)C(=O)O
The melting point of the first is lower: 58 to 60 °C for the first, 87.5 to 89 °C for the second.

Compared with `CN(C)CCOCCc1cccc2sccc12.Cl`, `CN(C)CCOCCc1cccc2ccsc12.Cl` is lower in melting point: 165 to 167 °C for the first, 130 to 132 °C for the second.

First: CN(C)CCN(C)CCOCCc1ccc2sccc2c1.Cl.Cl
Second: CN(CCOCCc1ccc2sccc2c1)CCOC(=O)C(C)(C)C.Cl
The melting point of the first is higher: 228 to 230 °C for the first, 118 to 119 °C for the second.

First: CN(CCO)CCOCCc1cc2ccsc2cc1F.O=C(O)C(=O)O
Second: CN(C)CCOCCc1cc2ccsc2cc1F.O=C(O)C(=O)O
The melting point of the first is lower: 96 to 99 °C for the first, 120 to 126 °C for the second.

First: Cc1cc2cc(CCOCCN(C)CCO)ccc2s1.O=C(O)C(=O)O
Second: CN(CCO)CCOCCc1ccc2sc(F)cc2c1.O=C(O)C(=O)O
The melting point of the first is lower: 73 to 75 °C for the first, 77 to 80 °C for the second.

First: CCN(CCO)CCOCCc1ccc2sccc2c1.O=C(O)C(=O)O
Second: CN(CCCO)CCOCCc1ccc2sccc2c1.O=C(O)C(=O)O
The melting point of the first is lower: 53 to 56 °C for the first, 93 to 95 °C for the second.

Compared with `O=C(O)C(=O)O.OCCN(CCOCCc1ccc2sccc2c1)Cc1ccccc1`, `C#CCN(CCOCCc1ccc2sccc2c1)Cc1ccccc1.O=C(O)C(=O)O` is higher in melting point: 104 to 105.5 °C for the first, 107 to 108 °C for the second.

Compared with `CN(C)CCOCCc1ccc2occc2c1.O=C(O)C(=O)O`, `CC(CO)N(C)CCOCCc1ccc2sccc2c1.O=C(O)C(=O)O` (stereo not shown) is lower in melting point: 101 to 103 °C for the first, 97 to 99 °C for the second.

`CN(CCO)CCOCCc1c(F)ccc2ccsc12.Cl` and `CCN(CC)CCOCCc1c(F)ccc2ccsc12.Cl` cannot be ordered by melting point: 69 to 72 °C for the first, 71 to 73.5 °C for the second.

`CN(CCO)CCOCCc1cccc2ccsc12.Cl` and `CCN(CC)CCOCCc1cccc2ccsc12.O=C(O)C(=O)O` cannot be ordered by melting point: 74 to 76 °C for the first, 75 to 76 °C for the second.

Compared with `CCN(CC)CCOCCc1ccc2ncccc2c1.O=C(O)C(=O)O`, `CCN(CC)CCOCCc1ccc2sc(C(=O)O)cc2c1.Cl` is higher in melting point: 90 to 92 °C for the first, 148 to 150 °C for the second.

First: COc1ccc(CN(C)CCOCCc2ccc3sccc3c2)cc1.O=C(O)C(=O)O
Second: CN(CCOCCc1ccc2sccc2c1)Cc1ccc(F)cc1.O=C(O)C(=O)O
The melting point of the first is lower: 78.5 to 81 °C for the first, 149 to 150.5 °C for the second.

Compared with `CN(CCOCCc1ccc2sccc2c1)Cc1ccc([N+](=O)[O-])cc1.O=C(O)C(=O)O`, `CN(CCOCCc1cc2ccsc2cc1F)Cc1ccccc1.O=C(O)C(=O)O` is lower in melting point: 112 to 114 °C for the first, 96 to 98 °C for the second.

First: CN(C)CCOCCc1ccc2ccccc2c1.Cl
Second: CN(C)CCOCCc1cccc2ccccc12.Cl
The melting point of the first is lower: 105 to 107 °C for the first, 183 to 184 °C for the second.

Compared with `CCOC(=O)OCCN(C)CCOCCc1ccc2sccc2c1.Cl`, `CN(CCOCCc1ccc2sccc2c1)CCOC(=O)c1ccccc1.Cl` is higher in melting point: 73.5 to 76 °C for the first, 97 to 98 °C for the second.

First: CC(C)N(CCOCCc1ccc2sccc2c1)C(C)C.Cl
Second: CCN(CC)CCCCCOCCc1ccc2sccc2c1.Cl
The melting point of the first is lower: 78 to 79 °C for the first, 138.5 to 140 °C for the second.

First: CN(C)CCOCCc1ccc2sc(-c3ccccc3)cc2c1.Cl
Second: COc1ccc2cc(CCOCCN(C)C)ccc2c1.Cl
The melting point of the first is higher: 170 to 172 °C for the first, 125 to 128 °C for the second.

First: CCN(CC)CCOCCc1cc2ccsc2cc1OC.O=C(O)C(=O)O
Second: CCCN(CCC)CCOCCc1ccc2sccc2c1.O=C(O)C(=O)O
The melting point of the first is lower: 80 to 83 °C for the first, 93 to 98 °C for the second.

Compared with `CN(C)CCOCCc1ccc2sccc2c1F.O=C(O)C(=O)O`, `CN(C)CCOCCc1ccc(F)c2ccsc12.Cl` is lower in melting point: 118 to 121 °C for the first, 67 to 69 °C for the second.

First: CN(C)CCOCCc1cc2ccsc2cc1Cl.Cl
Second: CCN(CC)CCOCCc1c(F)cc2ccsc2c1F.Cl
The melting point of the first is higher: 105 to 108 °C for the first, 98 to 100 °C for the second.

First: CCC(Cc1ccc2sccc2c1)OCCN(CC)CC.Cl (stereo not shown)
Second: CC(COCCc1ccc2sccc2c1)N(C)CCO.O=C(O)C(=O)O (stereo not shown)
The melting point of the first is higher: 84.5 to 87 °C for the first, 72 to 74 °C for the second.

In the case of `CN(CCO)CCCCCOCCc1ccc2sccc2c1.O=C(O)C(=O)O`, the melting point is reported as 78.5 to 80.5 °C.
